Test results from patent US11952387B2, “Bicyclic heteroaromatic ring derivative” (priority 2018, dated 2024).

System: HRV14
Assay: Inhibitory activity against human rhinovirus infection and replication (quantitative real-time PCR)
Type: cell-based
Conditions: Human rhinovirus sp., MRC5; 100 nmol/L test compound; MRC-5 cells infected with HRV14 at MOI=0.2; 48 hours; viral load normalized to 18s rRNA; read-out: Percent Inhibition
Protocol: Evaluation of inhibitory activity against human rhinovirus infection and replication (by quantitative real-time PCR)
A required amount of a test compound was weighed off and dissolved in dimethyl sulfoxide (DMSO) to yield a 10 mmol/L stock solution. Next, the stock solution was diluted with a medium for viral infection (minimum essential medium (MEM) supplemented with 2% fetal bovine serum, 5% Tryptose phosphate broth, and 30 mmol/L MgCl2) to prepare 100 nmol/L and 1000 nmol/L of test compound solutions. MRC-5 (human fetal lung fibroblast: ATCC) was suspended at a density of 30000 cells/mL in cell culture medium (MEM supplemented with 10% fetal bovine serum), and 625 μL of the suspension per well was seeded into a 24-well cell culture plate and cultured at 37° C. in 5% CO2. After 72 hours, it was confirmed that the plate had become 80% confluent. The plate was washed with 625 μL of phosphate-buffered physiological saline (Ca/Mg-free; PBS-) once, and 625 μL of the test compound solution prepared just before use was immediately added to the plate. After 30 minutes, the medium was removed followed by addition of 187.5 μL of the test compound solution that had been prepared such that the cells were infected with HRV14 (ATCC) at multiplicity of infection (MOI)=0.2. The cells were then cultured at 35° C. in 5% CO2. After additional 2 hours, 625 μL of the test compound solution prepared just before use was added, and the cells were cultured at 35° C. in 5% CO2. After 48 hours, the cells were washed with 625 μL of PBS- once, and total RNA was extracted from the cells using RNeasy (R) plus kit (Qiagen) according to the manufacturer's instruction. Subsequently, cDNA was synthesized using High-Capacity cDNA Reverse Transcription Kit (Thermo Fisher Scientific). Finally, quantitative real-time PCR was performed in 7500 Fast Real-time PCR system (Life technologies) to measure HRV14 and 18s rRNA. The measurement protocol consisted of the initial denaturation phase at 95° C. for 20 seconds followed by 40 cycles of the denaturation step at 95° C. for 3 seconds and the annealing/elongation step at 60° C. for 30 seconds. The primers used were HRV14 forward primer set forth in SEQ ID NO: 1 and HRV14 reverse primer set forth in SEQ ID NO: 2, and the probe is set forth in SEQ ID NO: 3.
18s rRNA was measured using Eukaryotic 18S rRNA Endogenous Control (Applied Biosystems). According to Equation 1, 18s ribosomal RNA was used as an internal standard to normalize the viral load of HRV14: Viral load of HRV14=The amount of HRV14 in virus-infected cells/the amount of 18s rRNA in virus-infected cells Equation 1
Inhibitory activity of test compounds was calculated as a percent inhibition (%) according to Equation 2: Percent inhibition (%)=[the viral load of HRV in virus-infected cells in the absence of the test compound −the viral load of HRV in virus-infected cells in the presence of the test compound]/[the viral load of HRV in virus-infected cells in the absence of the test compound]×100 Equation 2
The results of using 100 nmol/L test compound solutions were shown in the tables below according to Examples. In the tables, percent inhibition was expressed as follows: percent inhibition >80%: +++, 80%≥percent inhibition >50%: ++, and 50%≥percent inhibition:+.

| SMILES | inhibition at 0.1 µM [%] |
| --- | --- |
| Cc1nc2sc(C(C)(C)O)nn2c1-c1ccc(C(F)(F)F)c(S(=O)(=O)NC2(CO)COC2)c1 [Example 2-31] | > 80 |
| COc1ccc(-c2c(C)nc3sc(C(C)(C)O)nn23)cc1S(=O)(=O)[C@H]1C[C@](C)(O)C1 [Example 2-76] | > 80 |
| COc1ccc(-c2c(C)nc3sc(C(O)(C4CC4)C4CC4)nn23)cc1S(=O)(=O)C(C)(C)C#N [Example 7-2] | > 80 |
| COc1ccc(-c2c(C)nc3sc(C(C)(C)O)nn23)cc1S(=O)(=O)C1CC2(COC2)C1 [Example 2-65] | > 80 |
| COc1ccc(-c2c(C)nc3sc(C(C)(C)O)nn23)cc1S(=O)(=O)[C@H]1C[C@H](O)C1 [Example 2-56] | ≤ 50 |
| COc1ccc(-c2c(C)nc3sc(C4(OC)CCCC4)cn23)cc1S(=O)(=O)N[C@H]1CC[C@@H](O)CC1 [Example 1-45] | > 80 |
| Cc1nc2sc(C(C)(C)O)nn2c1-c1ccc(C(F)(F)F)c(S(=O)(=O)N[C@H]2C[C@@H](O)C2)c1 [Example 2-17] | > 80 |
| COc1ccc(-c2c(C)nc3sc(C(O)(C4CC4)C4CC4)nn23)cc1S(=O)(=O)C(C)(C)C(N)=O [Example 6-3] | > 80 |
| COc1ccc(-c2c(C)nc3sc(C(C)(C)O)nn23)cc1S(=O)(=O)C(C)(C)C(N)=O [Example 6-1] | 50 to 80 |
| CNC(=O)C(C)(C)S(=O)(=O)c1cc(-c2c(C)nc3sc(C(O)(C4CC4)C4CC4)nn23)ccc1OC [Example 8-4] | > 80 |
| COc1ccc(-c2c(C)nc3sc(C(C)(C)O)nn23)cc1S(=O)(=O)CC1(C)COC1 [Example 2-41] | 50 to 80 |
| Cc1nc2sc(C(C)(C)O)nn2c1-c1ccc(C(F)(F)F)c(S(=O)(=O)C2CN(CCO)C2)c1 [Example 12-2] | 50 to 80 |
| COc1ccc(-c2c(C)nc3sc(C(C)(C)O)nn23)cc1S(=O)(=O)CC1(O)COC1 [Example 2-40] | ≤ 50 |
| COc1ccc(-c2c(C)nc3sc(C(C)(C)O)nn23)cc1S(=O)(=O)N[C@H]1C[C@@H](O)C1 [Example 21-10] | ≤ 50 |
| COc1ccc(-c2c(C)nc3sc(C(C)(C)O)nn23)cc1S(=O)(=O)C1(C(C)(C)O)CC1 [Example 2-66] | > 80 |
| Cc1nc2sc(C(C)(C)O)nn2c1-c1ccc(C(F)(F)F)c(S(=O)(=O)CCO)c1 [Example 2-14] | ≤ 50 |
| COc1ccc(-c2c(C)nc3sc(C4(C(F)(F)F)CC4)nn23)cc1S(=O)(=O)N[C@H]1CC[C@@H](O)CC1 [Example 1-31] | > 80 |
| COc1ccc(-c2c(C)nc3sc(C(C)(C)O)nn23)cc1S(=O)(=O)CC1(O)CCC(F)(F)CC1 [Example 2-64] | > 80 |
| COc1ccc(-c2c(C)nc3sc(C(C)(C)O)nn23)cc1S(=O)(=O)C(C)(C)C#N [Example 7-1] | > 80 |
| Cc1nc2sc(C(O)(C3CC3)C3CC3)nn2c1-c1ccc(C(F)(F)F)c(S(=O)(=O)CC(C)(C)O)c1 [Example 2-87] | > 80 |
| COc1ccc(-c2c(C)nc3sc(C(O)(C4CC4)C4CC4)nn23)cc1S(=O)(=O)CC(C)(C)O [Example 1-53] | > 80 |
| COc1ccc(-c2c(C)nc3sc(C(O)(C4CC4)C4CC4)nn23)cc1S(=O)(=O)C1CN(C(C)=O)C1 [Example 10-3] | > 80 |
| Cc1nc2sc(C(C)(C)O)cn2c1-c1ccc(Cl)c(S(=O)(=O)N[C@H]2CC[C@@H](O)CC2)c1 [Example 1-2] | ≤ 50 |
| Cc1nc2sc(C(C)(C)O)nn2c1-c1ccc(C(F)(F)F)c(S(=O)(=O)NC2(C(C)(C)O)CC2)c1 [Example 3-2] | > 80 |

| SMILES | inhibition at 0.1 µM [%] |
| --- | --- |
| Cc1nc2sc(C(C)(C)O)nn2c1-c1ccc(OC(F)(F)F)c(S(=O)(=O)N[C@H]2CC[C@H](O)CC2)c1 [Example 2-7] | > 80 |
| COc1ccc(-c2c(C)nc3sc(C(O)(C4CC4)C4CC4)nn23)cc1S(=O)(=O)C(C)(C)C(=O)NCC(C)(C)O [Example 8-3] | > 80 |
| COC(=O)C(C)(C)c1nn2c(-c3cnc(OC)c(S(=O)(=O)N[C@H]4CC[C@@H](O)CC4)c3)c(C)nc2s1 [Example 1-23] | > 80 |
| COc1ccc(-c2c(C)nc3sc(C(C)(C)O)nn23)cc1S(=O)(=O)[C@H]1C[C@@H](C(C)(C)O)C1 [Example 2-71] | > 80 |
| Cc1nc2sc(C(C)(C)O)cn2c1-c1ccc(C(F)(F)F)c(S(=O)(=O)N[C@H]2CC[C@@H](O)CC2)c1 [Example 1-19] | > 80 |
| COc1ccc(-c2c(C)nc3sc(C4(O)CC4)cn23)cc1S(=O)(=O)N[C@H]1CC[C@@H](O)CC1 [Example 22] | ≤ 50 |
| COc1ccc(-c2c(C)nc3sc(C(C)(C)CO)nn23)cc1S(=O)(=O)N[C@H]1CC[C@@H](O)CC1 [Example 20-1] | > 80 |
| COc1ccc(-c2c(C)nc3sc(C(O)(C4CC4)C4CC4)nn23)cc1S(=O)(=O)C1CN(S(C)(=O)=O)C1 [Example 9-3] | > 80 |
| COc1ncc(-c2c(C)nc3sc(C(C)(C)O)nn23)cc1S(=O)(=O)N[C@H]1CC[C@@H](O)CC1 [Example 1-21] | ≤ 50 |
| COc1ncc(-c2c(C)nc3sc(C(C)(C)C)cn23)cc1S(=O)(=O)N[C@H]1CC[C@@H](O)CC1 [Example 1-13] | > 80 |
| Cc1nc2sc(C(C)(C)O)nn2c1-c1ccc(C(F)(F)F)c(S(=O)(=O)[C@H]2C[C@](C)(O)C2)c1 [Example 2-77] | > 80 |
| COc1ccc(-c2c(C)nc3sc(C(C)(C)O)nn23)cc1S(=O)(=O)N[C@H]1C[C@@H](CO)C1 [Example 21-9] | ≤ 50 |
| CNC(=O)C(C)(C)S(=O)(=O)c1cc(-c2c(C)nc3sc(C(C)(C)O)nn23)ccc1OC [Example 8-1] | 50 to 80 |
| COc1ncc(-c2c(C)nc3sc(C(C)(C)C(=O)O)nn23)cc1S(=O)(=O)N[C@H]1CC[C@@H](O)CC1 [Example 18-2] | ≤ 50 |
| Cc1nc2sc(C(C)(C)O)nn2c1-c1ccc(C(F)(F)F)c(S(=O)(=O)N(C)[C@H]2CC[C@H](O)CC2)c1 [Example 2-9] | > 80 |
| Cc1nc2sc(C(C)(C)O)nn2c1-c1ccc(C(F)(F)F)c(S(=O)(=O)CC(C)(C)O)c1 [Example 2-27] | > 80 |
| COc1ccc(-c2c(C)nc3sc(C(C)(C)O)cn23)cc1S(=O)(=O)CC(C)(C)O [Example 1-42] | ≤ 50 |
| COc1ccc(-c2c(C)nc3sc(C(C)(C)O)nn23)cc1S(=O)(=O)[C@H]1C[C@@](C)(O)C1 [Example 2-55] | ≤ 50 |
| COc1ccc(-c2c(C)nc3sc(C(C)(C)O)nn23)cc1S(=O)(=O)N[C@H]1CC[C@](C)(O)CC1 [Example 21-12] | 50 to 80 |
| Cc1nc2sc(C(C)(C)O)nn2c1-c1ccc(C(F)(F)F)c(S(=O)(=O)C2COC2)c1 [Example 2-28] | > 80 |
| COc1c(F)cc(-c2c(C)nc3sc(C(C)(C)O)nn23)cc1S(=O)(=O)NC(C)(C)CO [Example 2-29] | > 80 |
| Cc1nc2sc(C(C)(C)O)nn2c1-c1ccc(C(F)(F)F)c(S(=O)(=O)NC2COC2)c1 [Example 2-22] | > 80 |
| Cc1nc2sc(C(C)(C)O)nn2c1-c1ccc(C(F)(F)F)c(S(=O)(=O)C(C)(C)CO)c1 [Example 4-3] | > 80 |
| COc1ncc(-c2c(C)nc3sc(C4CC4)nn23)cc1S(=O)(=O)N[C@H]1CC[C@@H](O)CC1 [Example 1-16] | 50 to 80 |
